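Assay format: 96-well plates, 48-hour exposure. Here, GI50 denotes the concentration required for 50% inhibition of growth. At the TGI there is no net growth.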
What was measured:
Test in all cases: inhibition of tumour cell growth, NCI panel, 48 h
SK-MEL-5 melanoma = tested on: SK-MEL-5 melanoma
SF-539 CNS = tested on: SF-539 CNS
UO-31 renal = tested on: UO-31 renal
UACC-62 melanoma = tested on: UACC-62 melanoma
SNB-19 CNS = tested on: SNB-19 CNS
IGROV1 ovarian = tested on: IGROV1 ovarian
SK-OV-3 ovarian = tested on: SK-OV-3 ovarian
HOP-92 NSCLC = tested on: HOP-92 NSCLC

SMILES | TGI (SK-MEL-5 melanoma) [µM] | TGI (SF-539 CNS) [µM] | TGI (UO-31 renal) [µM] | TGI (UACC-62 melanoma) [µM] | TGI (SNB-19 CNS) [µM] | TGI (IGROV1 ovarian) [µM] | TGI (SK-OV-3 ovarian) [µM] | TGI (HOP-92 NSCLC) [µM] | GI50 (SK-MEL-5 melanoma) [µM] | GI50 (SF-539 CNS) [µM] | GI50 (UO-31 renal) [µM] | GI50 (UACC-62 melanoma) [µM] | GI50 (SNB-19 CNS) [µM] | GI50 (IGROV1 ovarian) [µM] | GI50 (SK-OV-3 ovarian) [µM] | GI50 (HOP-92 NSCLC) [µM]
COc1cc(OC)c(/C=C\c2ccnc3ccccc23)c(OC)c1 | 5.88 | 12.4 | 3.55 | 14.6 | 18.2 | 15.5 | 20.5 | 9.91 |  |  |  |  |  |  |  | 
CCCCCCCCN(CCCCCCCC)CCCCCCNc1cc(OC)cc2cccnc12 | 21.1 | 11.5 | 24.4 | 31.4 | 24.2 | 29.4 | 28.8 |  | 8.53 | 3.18 | 10.9 | 16.9 | 10.5 | 13.2 | 15.3 | 
COc1cc2nc(SCC(=O)Nc3cc(OC)c(OC)c(OC)c3)n(Cc3ccccc3)c(=O)c2cc1OC |  | 5.78 | 8.85 | 6.82 | 18.1 | > 100 | 7.26 |  |  | 2.37 | 1.95 | 2.35 | 2.92 | 7.34 | 2.91 | 
CCN1C(=O)N(CC)C2Nn3c(s/c(=C\c4ccccc4Br)c3=O)=NC21 (centres undefined) | 5.64 | 3.08 | > 100 | 31.1 | > 100 | > 100 | 7.7 | 80.8 | 1.71 | 0.889 | 2 | 2.18 | 3.18 | 2.77 | 2.15 | 4.14
COc1ccc(C(SCC(N)C(=O)O)(c2ccccc2)c2ccccc2)cc1 (centres undefined) | 19.7 | 15.1 | > 100 | > 56.7 | > 100 | > 82.3 | > 100 | 66.8 | 0.0623 | 0.0721 | 13.6 | 0.171 | 0.0594 | 0.443 | 0.19 | 2
O=C1c2ccccc2S(=O)(=O)N1CSC(=S)N1CCCCC1 | > 100 | > 100 | > 100 | > 57.3 | > 100 | > 100 | > 100 | > 100 | 33.2 | > 100 | > 100 |  | > 100 | > 89 | > 100 | > 100
NC1CCC(Nc2nc(NCc3ccc(-c4cccs4)nc3)c3ncn(C4CCCC4)c3n2)CC1 (centres undefined) | 1.28 | 0.395 | 0.661 | 0.365 | 3.75 | 1.93 | 4.28 | 0.134 | 0.28 | 0.157 | 0.203 | 0.087 | 0.0302 | 0.0363 | 0.126 | 0.03
CN(Cc1cc(Br)cc(Br)c1O)Cc1cc(Br)cc(Br)c1O | 3.71 | 20.2 | 14.6 | 11.8 | 36 | 18.1 |  | 8.87 | 1.34 | 2.61 | 1.08 | 1.8 | 4.86 | 1.56 |  | 1.42
Cc1ccc(-c2cc3c(SCC(=O)Nc4cc(C(F)(F)F)ccc4Cl)nccn3n2)cc1 | > 100 | > 100 | > 100 | > 100 | > 100 | > 100 | > 100 | > 100 | > 100 | 8.5 | > 100 | > 100 | 30.9 | > 100 | 69.4 | 14.1
Clc1ccc2c(c1)N(c1ncnc3ccc(-c4cnc5[nH]ccc5c4)cc13)CC2 | 26.4 | 48.7 | 16.7 | 21.1 | 35.5 | 2.27 | 61.4 | 31.5 | 3.8 | 6.8 | 0.484 | 0.982 | 4.48 | 0.304 | 4.03 | 2.61
O=[N+]([O-])c1ccc(Sc2ncnc3nc[nH]c23)c2nonc12 | 22.3 | 21.5 | 2.95 | 17.3 | 41.9 | 7.64 | 16.2 | 22.2 | 10.2 | 4.53 | 1.6 | 4.91 | 20.8 | 2.32 | 3.75 | 2
Cc1ccc2ncnc(N(CC(C)C)CC(C)C)c2c1 | 25.6 |  | > 100 | 32.1 | 42.9 | > 100 | 29.7 | 24 | 6.9 |  | 22.2 | 14.5 | 20.5 | 23.4 | 14.2 | 8.36
O=CNc1ncn[nH]1 | > 100 | > 100 | > 100 | > 100 | > 100 | > 100 | > 100 |  |  |  |  |  |  |  |  | 
CCOC(=O)n1cc(C2=C(c3cn(C)c4ccccc34)COC2=O)c2ccccc21 | 0.393 | 0.584 | > 100 | > 55.6 | > 63.2 | > 45.8 | 56.8 |  | 0.0359 | 0.119 | 0.0781 | 0.0599 | 0.259 | 0.0564 | 1.97 | 
O=C1c2nsnc2C(=O)c2c(F)c(F)c(F)c(F)c21 | 2.52 | 3.14 | 2 | 2.5 | 2.56 | 5.07 | 3.7 |  | 1.24 | 1.7 | 0.702 | 1.2 | 1.2 | 1.52 | 2.04 | 
O=C(c1ccccc1)c1ccc(Oc2ccc([N+](=O)[O-])cc2[N+](=O)[O-])cc1 | 4.42 | 7.32 | 7.76 | 32.2 | 34.2 | 5.61 | 29.4 | 9.27 | 2.02 | 2.7 | 2.05 | 4.1 | 7.74 | 2.39 | 4.09 | 2.87
